Counter-ions that a name gives are not always drawn.
Assay: Particle size distribution (Sympatec Helos laser diffraction)
Type: physicochemical
Settings: for Particle size distribution, quantile 5% / Particle size distribution, quantile 10% / Particle size distribution, quantile 50% (median particle size) / Particle size distribution, quantile 90% / Particle size distribution, quantile 95%: Sympatec Helos
Description: As used herein, “particle size distribution” means the distribution of equivalent spherical diameters as determined by laser diffraction at 1 bar dispersive pressure in a Sympatec Helos equipment. “Median particle size”, correspondingly, means the median of said particle size distribution.

Br.CN(C)CCCC1(c2ccc(F)cc2)OCc2cc(C#N)ccc21 (single isomer, unassigned) [Example 2, Citalopram hydrobromide]
Particle size distribution, quantile 5%: 6.67 μm | Particle size distribution, quantile 10%: 11.97 μm | Particle size distribution, quantile 50% (median particle size): 52.70 μm | Particle size distribution, quantile 90%: 352.23 μm | Particle size distribution, quantile 95%: 549.42 μm

Br.CN(C)CCCC1(c2ccc(F)cc2)OCc2cc(C#N)ccc21 (single isomer, unassigned) [Example 3, Citalopram hydrobromide]
Particle size distribution, quantile 5%: 0.82 μm | Particle size distribution, quantile 10%: 1.19 μm | Particle size distribution, quantile 50% (median particle size): 14.04 μm | Particle size distribution, quantile 90%: 72.27 μm | Particle size distribution, quantile 95%: 96.96 μm

Br.CN(C)CCCC1(c2ccc(F)cc2)OCc2cc(C#N)ccc21 (single isomer, unassigned) [Example 1, Citalopram hydrobromide]
Particle size distribution, quantile 5%: 8.23 μm | Particle size distribution, quantile 10%: 16.54 μm | Particle size distribution, quantile 50% (median particle size): 96.87 μm | Particle size distribution, quantile 90%: 342.89 μm | Particle size distribution, quantile 95%: 465.43 μm

CN(C)CCCC1(c2ccc(F)cc2)OCc2cc(C#N)ccc21 (stereo not shown) [citalopram hydrobromide, reference compound]
Particle size (product of the process used for the preparation of citalopram hydrobromide (background)): 2-20 μm

Source: patent publication US6849659B2, “Pharmaceutical composition containing citalopram” (H. Lundbeck A/S, priority 2000, dated 2005)
